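Cells were grown in 96-well plates and exposed to each compound for 48 hours at five concentrations; endpoints were interpolated linearly between bracketing concentrations, or set to the highest concentration if not reached. The concentration for 50% growth inhibition is given as GI50. At the TGI there is no net growth.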
Tests used:
Test in all cases: DTP human tumour cell line panel, 48 h
[1] = test system: K-562 leukemia
[2] = test system: RXF 393 renal
[3] = test system: NCI-H522 lung
[4] = test system: NCI-H23 lung
[5] = test system: OVCAR-5 ovarian
[6] = test system: U251 CNS
[7] = test system: SF-268 CNS
[8] = test system: BT-549 breast
[9] = test system: UACC-62 melanoma
[10] = test system: LOX IMVI melanoma

`Cn1cc(-c2csc(-c3cn(CCN4CCOCC4)c4ccc(F)cc34)n2)c2cccnc21` gave a GI50 [1] of 2.94 µM, a TGI [1] of 10.3 µM and a GI50 [2] of 2.58 µM. For the same molecule, the TGI [2] was 7.23 µM, the GI50 [3] was 2.11 µM and the TGI [3] was 6.63 µM. The GI50 [4] was 2.47 µM, the TGI [4] was 7.89 µM and the GI50 [5] was 4.59 µM. For the same molecule, the TGI [5] was greater than 100 µM, the GI50 [6] was 3.35 µM and the TGI [6] was 22.2 µM. It also gave a GI50 [7] of 2.82 µM, a TGI [7] greater than 100 µM and a GI50 [8] of 2.18 µM. It also gave a TGI [8] of 6.21 µM, a GI50 [9] of 2060 nM and a TGI [9] of 5.34 µM.

With `COc1ccc(-c2cc(-c3ccccc3)c(C#N)c(=O)[nH]2)cc1` the TGI [1] was greater than 100 µM, the TGI [2] was greater than 100 µM and the TGI [3] was greater than 100 µM. The TGI [4] was greater than 100 µM, the TGI [5] was greater than 100 µM and the TGI [6] was greater than 100 µM. The TGI [7] was greater than 100 µM, the TGI [10] was greater than 100 µM and the TGI [9] was greater than 100 µM.

Work on `CC(C)[C@@H](C(=O)O[C@@H]1/C=C/C(=O)O[C@@H](C)CCC/C=C/[C@@H]2C[C@H](O)C[C@H]21)[N+](C)(C)C` yielded a GI50 [1] greater than 100 µM, a TGI [1] greater than 100 µM and a GI50 [3] greater than 100 µM. The TGI [3] was greater than 100 µM, the GI50 [4] was greater than 100 µM and the TGI [4] was greater than 100 µM. For the same molecule, the GI50 [5] was greater than 100 µM, the TGI [5] was greater than 100 µM and the GI50 [6] was greater than 100 µM. It also gave a TGI [6] greater than 100 µM, a GI50 [7] greater than 100 µM and a TGI [7] greater than 100 µM. It also gave a GI50 [10] greater than 100 µM, a TGI [10] greater than 100 µM and a GI50 [8] greater than 100 µM. For the same molecule, the TGI [8] was greater than 100 µM, the GI50 [9] was greater than 100000 nM and the TGI [9] was greater than 100 µM.

With `CCC(=N\NC(N)=S)/C(C)=N/O` the TGI [1] was greater than 100 µM, the TGI [2] was greater than 100 µM and the TGI [4] was greater than 100 µM. The TGI [5] was greater than 100 µM, the TGI [6] was greater than 100 µM and the TGI [7] was greater than 100 µM. For the same molecule, the TGI [10] was greater than 100 µM and the TGI [9] was greater than 100 µM.

`CC1=CC(=O)c2cccc(NC3=NCCO3)c21` gave a TGI [1] greater than 100 µM, a TGI [2] greater than 100 µM and a TGI [3] greater than 100 µM. For the same molecule, the TGI [4] was greater than 100 µM, the TGI [5] was greater than 100 µM and the TGI [6] was greater than 100 µM. The TGI [7] was greater than 100 µM, the TGI [10] was greater than 100 µM and the TGI [9] was greater than 100 µM.

In the case of `O=C1Cc2ccccc2N1/N=C\c1ccc(O)cc1`, the TGI [1] was greater than 100 µM, the TGI [4] was greater than 100 µM and the TGI [5] was greater than 100 µM. For the same molecule, the TGI [6] was greater than 100 µM, the TGI [7] was greater than 100 µM and the TGI [10] was greater than 100 µM. The TGI [9] was greater than 100 µM.

`COc1ccc(S(=O)(=O)O)cc1NS(=O)(=O)c1ccc(C)cc1` was tested, and the TGI [1] was greater than 100 µM, the TGI [3] was greater than 100 µM and the TGI [4] was greater than 100 µM. The TGI [5] was greater than 100 µM, the TGI [6] was greater than 100 µM and the TGI [7] was greater than 100 µM. The TGI [10] was greater than 100 µM, the TGI [8] was greater than 100 µM and the TGI [9] was greater than 100 µM.

For `O=C1C2Cc3ccccc3CN2C(=O)N1CN1CCN(CN2C(=O)C3Cc4ccccc4CN3C2=O)CC1` (centres undefined), the TGI [1] was greater than 100 µM, the TGI [2] was greater than 100 µM and the TGI [3] was greater than 100 µM. For the same molecule, the TGI [4] was greater than 100 µM, the TGI [5] was greater than 100 µM and the TGI [6] was greater than 100 µM. For the same molecule, the TGI [7] was greater than 100 µM, the TGI [10] was greater than 100 µM and the TGI [9] was greater than 100 µM.

In the case of `O=C(CCCn1ccnc1[N+](=O)[O-])NCCn1cnc([N+](=O)[O-])c1`, the TGI [1] was greater than 100 µM, the TGI [3] was greater than 100 µM and the TGI [4] was greater than 100 µM. The TGI [5] was greater than 100 µM, the TGI [6] was greater than 100 µM and the TGI [7] was greater than 100 µM. It also gave a TGI [10] greater than 100 µM, a TGI [8] greater than 100 µM and a TGI [9] greater than 100 µM.

`COc1cc(C/C=C/c2ccccc2)c(OC)cc1O` showed a TGI [1] of 31.6 µM, a TGI [3] of 40.9 µM and a TGI [4] of 42.8 µM. For the same molecule, the TGI [5] was 60.6 µM, the TGI [6] was 38.2 µM and the TGI [7] was 59.4 µM. For the same molecule, the TGI [10] was 37.4 µM, the TGI [8] was 58.4 µM and the TGI [9] was 37.7 µM.

Molecule `CC1SC2=NC3=C(c4ccccc4C3=O)C(c3ccc(Br)cc3)N2C1=O` (centres undefined) has a TGI [1] greater than 100 µM, a TGI [3] of 48.3 µM and a TGI [4] greater than 100 µM. For the same molecule, the TGI [5] was greater than 100 µM, the TGI [6] was greater than 100 µM and the TGI [7] was greater than 100 µM. It also gave a TGI [9] greater than 100 µM.

In the case of `CSc1nc(Cl)c(Br)c(Nc2c[nH]c(=O)[nH]c2=O)n1`, the TGI [1] was greater than 100 µM, the TGI [2] was 45.4 µM and the TGI [3] was 3.88 µM. The TGI [4] was 35.7 µM, the TGI [6] was 48.5 µM and the TGI [10] was 39.3 µM. For the same molecule, the TGI [9] was 31.4 µM.

For `CCN(CC)c1ccc(/C=C/C(=O)c2cccc(NS(C)(=O)=O)c2)cc1`, the GI50 [1] was 3.47 µM, the TGI [1] was greater than 100 µM and the GI50 [2] was 58 µM. It also gave a TGI [2] greater than 100 µM, a GI50 [3] of 87.7 µM and a TGI [3] greater than 100 µM. The GI50 [4] was 4.51 µM, the TGI [4] was greater than 100 µM and the GI50 [5] was 35 µM. The TGI [5] was greater than 100 µM, the GI50 [6] was 10.9 µM and the TGI [6] was greater than 100 µM. It also gave a GI50 [7] of 18.5 µM, a TGI [7] greater than 100 µM and a GI50 [10] of 3.13 µM. For the same molecule, the TGI [10] was greater than 100 µM, the GI50 [8] was 4.67 µM and the TGI [8] was greater than 100 µM.

`O=C1c2c(c3c4ccccc4n4c3c3c2c2ccccc2n3C/C=C\C4)C(=O)N1Cc1ccccc1` showed a TGI [1] greater than 100 µM, a TGI [2] greater than 100 µM and a TGI [3] greater than 100 µM. For the same molecule, the TGI [4] was greater than 100 µM, the TGI [5] was greater than 100 µM and the TGI [6] was greater than 100 µM. For the same molecule, the TGI [10] was greater than 100 µM and the TGI [9] was greater than 100 µM.

`CSC(=S)N(C)NC(=O)c1cccc(C(=O)NN(C)C(=S)SC)n1` showed a TGI [1] greater than 100 µM, a TGI [2] of 74.4 µM and a TGI [3] of 40.1 µM. It also gave a TGI [4] greater than 100 µM, a TGI [5] greater than 100 µM and a TGI [6] of 54.6 µM. For the same molecule, the TGI [7] was 43.9 µM, the TGI [10] was greater than 100 µM and the TGI [9] was 55.8 µM.

In the case of `O=C(N/C(=C\c1ccc([N+](=O)[O-])cc1)c1nc2[nH]c(=S)[nH]c(=O)c2[nH]1)c1ccccc1`, the TGI [1] was greater than 100 µM, the TGI [2] was greater than 100 µM and the TGI [3] was greater than 100 µM. The TGI [4] was greater than 100 µM, the TGI [5] was greater than 100 µM and the TGI [6] was greater than 100 µM. It also gave a TGI [7] greater than 100 µM and a TGI [9] greater than 100 µM.

`O=C(c1ccc(Cl)cc1)N(C(=S)N1CCN(c2ccccn2)CC1)c1ccccc1` gave a TGI [1] greater than 100 µM, a TGI [2] greater than 100 µM and a TGI [3] greater than 100 µM. The TGI [4] was greater than 100 µM, the TGI [5] was greater than 100 µM and the TGI [6] was greater than 100 µM. For the same molecule, the TGI [7] was greater than 100 µM, the TGI [10] was greater than 100 µM and the TGI [9] was greater than 100 µM.

In the case of `COc1ccc(CNc2nc3ccccc3nc2-c2cccs2)cc1OC`, the TGI [1] was greater than 100 µM, the TGI [2] was greater than 100 µM and the TGI [4] was greater than 100 µM. It also gave a TGI [5] greater than 100 µM, a TGI [6] greater than 100 µM and a TGI [7] greater than 100 µM.

`CC(C)O/C=C1\C(=O)C2(SCCS2)[C@H]2CCCC[C@@H]12` showed a TGI [1] greater than 100 µM, a TGI [2] of 57.8 µM and a TGI [3] of 53.9 µM. For the same molecule, the TGI [6] was greater than 100 µM, the TGI [7] was greater than 100 µM and the TGI [9] was 69.4 µM.

`CCOC(=O)CNC(SC)=C(C#N)C#N` gave a TGI [1] greater than 100 µM, a TGI [2] greater than 100 µM and a TGI [3] greater than 100 µM. It also gave a TGI [4] greater than 100 µM, a TGI [5] greater than 100 µM and a TGI [6] greater than 100 µM. The TGI [7] was greater than 100 µM, the TGI [10] was greater than 100 µM and the TGI [9] was greater than 100 µM.

In the case of `Cc1cn(C2C=CC(=O)C(C)O2)c(=O)[nH]c1=O` (centres undefined), the TGI [1] was 36.9 µM, the TGI [3] was 32.4 µM and the TGI [4] was 37.1 µM. For the same molecule, the TGI [6] was 28.6 µM, the TGI [7] was 33.5 µM and the TGI [10] was 26.6 µM. It also gave a TGI [9] of 29.1 µM.

— PubChem BioAssay (NCI)
